In patent US6790839B2, “Pharmaceutical administration of adenosine agonists” (Can-Fite Biopharma Ltd., priority 1999, dated 2004):
Entries after “also recorded” stand apart in the source; their conditions may differ.

Key:
bone marrow cells [1] = experiment: Bone marrow cell proliferation in vitro ([3H]-thymidine incorporation assay); format: cell-based, C57BL/6J mice
Experimental: All drugs were purchased from Sigma Chemical Co. St. Louis, Mo. Adenosine was dissolved in water and kept as a stock solution in a concentration of 1 mM. For in vitro studies, dilutions in RPMI medium were carried out and final concentrations of 100, 50, 25, 10 and 5 μM were used. For in vivo studies, the stock solution was diluted with PBS to a concentration of […] and 0.5 ml was injected intraperitoneally to mice. 1,3-dipropyl-8-cyclopentylxanthine (DPCPX), an adenosine A1 receptor antagonist, 3,7-dimethyl-1-propargyl-xanthine (DMPX) an A2 receptor antagonist and N-cyclopentyladenosine (CPA), a selective A1 receptor agonist were added to a culture of proliferating bone marrow cells.
Bone marrow cells were obtained from the femur of C57BL/6J mice. Cells were disaggregated by passing through a 25G needle. [^3H]-Thymidine incorporation assay was used to evaluate the proliferative capability of the bone marrow cells.
Cells (3×10^4/well were incubated with RPMI medium, containing 10% fetal calf serum (FCS) (Biological Industries, Beit Haemek, Israel) and adenosine, adenosine antagonists or the agonist in 96 microtiter plates for 48 h. Cultures containing cells were suspended in RPMI medium and 10% FCS served as controls. In the last 6 hours of incubation, each well was pulsed with 1 μCi [^3H]-thymidine. Cells were harvested and the ^3[H]-thymidine uptake was determined in an LKB liquid scintillation counter (LKB, Piscataway, N.J., USA).

G-CSF = experiment: In vivo serum G-CSF level by ELISA after chemotherapy; design: species or system ICR mice; conditions: for G-CSF (pgr/ml): serum, CPA 6 μg/kg per os 48 h and 72 h after chemotherapy where given, male ICR mice
Experimental: Male ICR mice of the age of two months and weighing an average of 25 gr were employed. The mice were purchased from Harlan Laboratories, Jerusalem, […]. Protection of CPA-treated mice against myelotoxic effects of chemotherapy was evaluated. To this end, mice were provided with a chemotherapeutic drug, a combination of the drug with CPA or with a vehicle only. […] In particular, three test groups of mice were treated daily according to the following regimen: 1. Control group-vehicle only. 2. Chemotherapy-CYP (50 mg/kg body weight). 3. Chemotherapy+chemoprotection-CYP (50 mg/kg body weight)+CPA (6 μg/kg body weight, given through per os administration, 48 h and 72 h following chemotherapy treatment). To test the myeloprotective effect of CPA, blood samples were withdrawn from the above-mentioned groups 96 h, 120 h and 144 h following treatment with CYP, the following measurements were taken. G-CSF level-granulocyte colony stimulating factor (G-CSF) level in the serum was determined by the use of a commercial ELISA kit (R&D Systems). G-CSF activity was expressed in pgr/ml according to a standard curve of recombinant G-CSF supplied by R&D Systems.

[2] = tested on: white blood cells (WBC) and neutrophils; experiment: In vivo protection against myelotoxic effects of chemotherapy: blood cell count (Coulter counter, differential counts); design: species or system ICR mice; conditions: for Neutrophils (no.) / WBC (no.): blood, CPA 6 μg/kg per os 48 h and 72 h where given; for Neutrophils (no.): control level 1200; for WBC (no.): control level 6100
Experimental: Male ICR mice of the age of two months and weighing an average of 25 gr were employed. The mice were purchased from Harlan Laboratories, Jerusalem, […]. Protection of CPA-treated mice against myelotoxic effects of chemotherapy was evaluated. To this end, mice were provided with a chemotherapeutic drug, a combination of the drug with CPA or with a vehicle only. […] In particular, three test groups of mice were treated daily according to the following regimen: 1. Control group-vehicle only. 2. Chemotherapy-CYP (50 mg/kg body weight). 3. Chemotherapy+chemoprotection-CYP (50 mg/kg body weight)+CPA (6 μg/kg body weight, given through per os administration, 48 h and 72 h following chemotherapy treatment). To test the myeloprotective effect of CPA, blood samples were withdrawn from the above-mentioned groups 96 h, 120 h and 144 h following treatment with CYP, the following measurements were taken. Blood cell count-Blood cell count was carried out in a Coulter counter and differential cell counts were performed on smear preparations stained with May-Grunvald-Giemsa solution. Serum was separated from the whole blood and was kept at -70° C.

bone marrow cells [3] = conditions: adenosine 10-50 μM, concentration dependent; cited from earlier work

OC[C@H]1O[C@@H](n2cnc3c(NC4CCCC4)ncnc32)[C@H](O)[C@@H]1O [CPA, N-cyclopentyladenosine]
stimulation of bone marrow cell proliferation (bone marrow cells [1]; concentrations of 0.1 and 0.01 μM, FIG 2): statistically significant stimulation | level of G-CSF (summary in words) (G-CSF; combined treatment versus CYP only, CPA given orally to mice): induces in vivo G-CSF production | in vivo protection against myelotoxicity of chemotherapeutic drugs ([2]; mice given CYP 50 mg/kg, CPA 6 μg/kg per os): provides in vivo protection against myelotoxicity; also recorded: acts as a chemoprotective agent

O=P1(N(CCCl)CCCl)NCCCO1 (stereo not shown) [CYP, cyclophosphamide]
G-CSF (pgr/ml) (G-CSF; 96 hrs after CYP 50 mg/kg): 511.30 pgr/ml | G-CSF (pgr/ml) (G-CSF; 120 hrs after CYP 50 mg/kg): 333.03 pgr/ml | G-CSF (pgr/ml) (G-CSF; 144 hrs after CYP 50 mg/kg): 871.14 pgr/ml | number of leukocytes and neutrophils (summary in words) ([2]; CYP only versus control, combined treatment versus CYP only): reduce significantly | Neutrophils (no.) ([2]; 96 hrs after CYP 50 mg/kg): 377 no. | WBC (no.) ([2]; 96 hrs after CYP 50 mg/kg): 2620 no. | Neutrophils (no.) ([2]; 120 hrs after CYP 50 mg/kg): 490 no. | WBC (no.) ([2]; 120 hrs after CYP 50 mg/kg): 2800 no. | Neutrophils (no.) ([2]; 144 hrs after CYP 50 mg/kg): 1326 no. | WBC (no.) ([2]; 144 hrs after CYP 50 mg/kg): 3900 no.

C#CCn1c(=O)c2c(ncn2C)n(C)c1=O [DMPX, 3,7-dimethyl-1-propargyl-xanthine]
effect on bone marrow cell proliferation (bone marrow cells [1]; 0.1 μM, given without or with adenosine, FIG 1): induced a stimulatory effect

CCCn1c(=O)c2[nH]c(C3CCCC3)nc2n(CCC)c1=O [DPCPX, 1,3-dipropyl-8-cyclopentylxanthine]
effect on adenosine-stimulated bone marrow cell proliferation (bone marrow cells [1]; 0.1 μM, with adenosine, FIG 1): significantly reversed the stimulatory effect of adenosine

Nc1ncnc2c1ncn2[C@@H]1O[C@H](CO)[C@@H](O)[C@H]1O [adenosine]
3[H]-thymidine incorporation of bone marrow cells (bone marrow cells [3]): stimulated
